# Data as given in patent publication US11317627B2, “Soybean disease control composition and soybean disease control method” (priority 2015, dated 2022).
# Key:
# [1] = tested on: soybean rust fungus (Phakopsora pachyrhizi); test: Test on spore germination inhibition against soybean rust fungus; format: cell-based; settings: single use, 25° C., 5 hours
# Procedure: Test Example 1: Test on Spore Germination Inhibition Against Soybean Rust Fungus (Phakopsora pachyrhizi)
# A spore suspension of soybean rust fungus was added to an aqueous chemical solution prepared so as to contain each test compound in a predetermined concentration and the whole was kept in a moist chamber at 25° C. for 5 hours. Thereafter, the presence of spore germination was investigated using a microscope, the spore germination rate was determined, and the spore germination inhibition rate was determined according to the following calculation formula. Spore germination inhibition rate=(1−a/b)×100 • a: spore germination rate in treated section, b: spore germination rate in untreated section Colby's formula=(X+Y)−XY/100 • X: spore germination inhibition rate in single use of ingredient (a) • Y: spore germination inhibition rate in single use of ingredient (b)
# Based on the obtained spore germination inhibition rate, the theoretical value (spore germination inhibition rate) was calculated using the Colby's formula. The theoretical value according to the Colby's formula was shown in brackets ( ) in Tables 1 to 6.
# In the case where the experimental value is higher than the theoretical value, the composition of the present invention has a synergistic effect on soybean rust fungus.
# Rhizoctonia solani = test: Test on mycelial growth inhibition effect against soybean Rhizoctonia rot; format: cell-based; settings: single use, PSA, 20° C., 2 days
# Procedure: Test Example 2: Test on Mycelial Growth Inhibition Effect Against Soybean Rhizoctonia Rot (Rhizoctonia solani)
# A colony (4 mmϕ) obtained by preculture was inoculated to PSA containing a chemical agent of a predetermined concentration and, after culture at a room temperature of 20° C. for 2 days, the diameter of the grown colony was measured to determine a mycelial growth inhibition rate. Mycelial growth inhibition rate=(1−A/B)×100 • A: diameter of colony in treated section, B: diameter of colony in untreated section Colby's formula=(X+Y)−XY/100 • X: mycelial growth inhibition rate in single use of ingredient (a) • Y: mycelial growth inhibition rate in single use of ingredient (b)
# Based on the obtained experimental value of the mycelial growth inhibition rate, the theoretical value of the mycelial growth inhibition rate was calculated using the Colby's formula. The theoretical value according to the Colby's formula was shown in brackets ( ) in Tables 7 to 11.
# In the case where the experimental value is higher than the theoretical value, the composition of the present invention has a synergistic effect on Rhizoctonia solani.
# [2] = Phakopsora pachyrhizi, 0.1 ppm, read-out: Spore germination inhibition rate
# [3] = Rhizoctonia solani, 48 h, read-out: Mycelial growth inhibition rate
# [4] = Rhizoctonia solani, 48 h, 0.1 ppm, read-out: Mycelial growth inhibition rate
# [5] = Rhizoctonia solani, 48 h, 1 ppm, read-out: Mycelial growth inhibition rate
# [6] = Phakopsora pachyrhizi, read-out: Spore germination inhibition rate
Compound,Spore germination inhibition rate ([1]; 1 ppm),Mycelial growth inhibition rate (Rhizoctonia solani; 0.1 ppm),"inhibition at 0.1 ppm [1, 2]","inhibition at 1 ppm ([1]; Phakopsora pachyrhizi, 1 ppm, read-out: Spore germination inhibition rate)","inhibition at 0.001 ppm (Rhizoctonia solani; Rhizoctonia solani, 48 h, 0.001 ppm, read-out: Mycelial growth inhibition rate)",inhibition at 0.01 ppm (Rhizoctonia solani; [3]),inhibition at 0.1 ppm (Rhizoctonia solani; [4]),inhibition at 1 ppm (Rhizoctonia solani; [5]),Mycelial growth inhibition rate (Rhizoctonia solani; 1 ppm),"inhibition at 0.01 ppm [1, 6]",Spore germination inhibition rate ([1]; 0.1 ppm)
"Cn1cc(C(=O)Nc2ccccc2-c2cc(F)c(F)c(F)c2)c(C(F)F)n1 [Fluxapyroxad, fluxapyroxad]",41%,42%,–,–,–,–,–,–,–,–,–
"O=[N+]([O-])c1cc(C(F)(F)F)c(Cl)c([N+](=O)[O-])c1Nc1ncc(C(F)(F)F)cc1Cl [Fluazinam, fluazinam]",–,78%,27%,71%,2%,14%,73%,88%,92%,–,–
"Fc1ccc([C@]2(Cn3cncn3)O[C@H]2c2ccccc2Cl)cc1 (racemic) [Epoxiconazole, epoxiconazole]",–,–,5%,–,–,–,39%,83%,–,1%,–
"CC(C)(C)C(O)(CCc1ccc(Cl)cc1)Cn1cncn1 (stereo not shown) [Tebuconazole, tebuconazole]",–,–,88%,–,–,17%,31%,70%,–,12%,–
"CC(C1CC1)C(O)(Cn1cncn1)c1ccc(Cl)cc1 (stereo not shown) [Cyproconazole, cyproconazole]",–,–,9%,–,–,7%,34%,80%,–,–,–
"OC(Cc1ccccc1Cl)(Cn1nc[nH]c1=S)C1(Cl)CC1 (stereo not shown) [Prothioconazole, prothioconazole]",–,–,89%,–,–,–,–,–,–,37%,–
"Cn1cc(C(=O)Nc2cccc3c2[C@@H]2CC[C@H]3C2=C(Cl)Cl)c(C(F)F)n1 (racemic) [Benzovindiflupyr, benzovindiflupyr]",52%,71%,–,–,–,–,–,–,–,–,45%
